Here are results for twelve compounds from patent US20090137613A1, “PHARMACEUTICALLY ACCEPTABLE SALTS AND POLYMORPHIC FORMS” (priority 2006, published 2009).

Where a name gives a salt, the structure may show the parent alone. Read-outs that look alike come from different tables or passages of the source.

The conditions of data set [1]: cited from earlier work.
Data set [2] in a line: Thermogravimetric analysis (TGA), thermally induced weight loss / thermal stability. It counts as physicochemical. The source says:
Polymorph I of valacyclovir mesylate according to the present invention is further characterised by a typical TGA thermograph, or substantially the same TGA thermograph, as shown in FIG. 3. As used herein, the term “TGA” refers to thermogravimetric analysis. […] TGA is restricted in transitions that involve either a gain or a loss of mass and it is most commonly used to study desolvation processes and compound decomposition.
FIG. 3: Typical TGA thermograph of polymorph I of valacyclovir mesylate obtained by using thermogravimetric analysis (TGA) using TGA 7 manufactured by Perkin-Elmer. The experiments were done under flow of nitrogen (35 ml/min) and heating rate was 10° C./min.

Data set [3] is described as follows: Dynamic vapour sorption (DVS), moisture sorption / hygroscopicity. It is filed as physicochemical. From the text:
DVS is a measure of the water vapour or moisture sorption of a material under varying conditions of humidity and it can be used as a measure of the hygroscopicity of a given material. The DVS data as described herein was obtained using the Dynamic Vapour Sorption (DVS) methodology developed by Surface Measurement Systems (SMS) Ltd. for the rapid quantitative analysis of the water sorption properties of solids including pharmaceutical materials. The Surface Measurement Systems DVS instrument rapidly measures uptake and loss of moisture by flowing a carrier gas at a specified relative humidity (RH) over a sample (1 mg-1.5 g) suspended from the weighing mechanism of a Cahn D-200 ultra sensitive recording microbalance. This particular microbalance is used because it is capable of measuring changes in sample mass lower than 1 part in 10 million and provides the long-term stability as required for the accurate measurement of vapour sorption phenomena, which may take from minutes to days to complete depending upon the sample size and material. Indeed, a major factor in determining the water sorption behaviour of materials is the need to establish rapid water sorption equilibrium, therefore the DVS instrument allows sorption behaviour to be accurately determined on very small sample sizes (typically 10 mg), thus minimising the equilibration time required. One of the most critical factors for any instrumentation used for investigating moisture sorption behaviour is the temperature stability of the measurement system. The main DVS instrument systems as used herein are, therefore, housed in a precisely controlled constant temperature incubator with a temperature stability of ±0.1° C. This ensures very good instrument baseline stability as well as accurate control of the relative humidity generation. The required relative humidities are generated by accurately mixing dry and saturated vapour gas flows in the correct proportions using mass flow controllers. Humidity and temperature probes are situated just below the sample and reference holders to give independent verification of system performance. The microbalance mechanism is very sensitive to sorption and desorption of moisture. A constant dry gas purge to the balance head is, therefore, provided to give the best performance in terms of baseline stability. The purge flow is manually controlled such that in the event of a power failure, condensation of moisture in the balance head cannot occur. The DVS instrument is fully automated.

For data set [4] the following is noted: cited from earlier work; for bioavailability: oral, valacyclovir in comparison to acyclovir.
The mark [5] stands for this setting: at about 90% relative humidity (RH).
[6] abbreviates: temperature range of about 30-175° C.

Turning to `CC(C)[C@H](N)C(=O)OCCOCn1cnc2c(=O)[nH]c(N)nc21` [valacyclovir hydrochloride], the solubility in water result in data set [1] is on record as “moderately soluble”.
On to “valacyclovir fumarate [Polymorph II of valacyclovir fumarate]”, for which the “stable to a temperature of (thermal stability confirmed by TGA)” value (shortened to “stable to a temperature”) in data set [2] is “about 150 °C”. Besides, the TGA weight loss entry in data set [2] (temperature range of about 30-140° C.) is on record as “about 9.2%”.
In the case of “valacyclovir maleate [Polymorph I of valacyclovir maleate]”, the “stable to a temperature” value in data set [2] (solid form as prepared) is “about 160 °C”. In addition, in data set [2] (temperature range of about 30-150° C.), the TGA weight loss entry is recorded as “about 5.3%”.
“valacyclovir phosphate [Polymorph I of valacyclovir phosphate]”: the results for the “dynamic vapour sorption (DVS)” value in data set [3] (at about 80% RH) and in data set [3] (setting [5]) were “about 1.0%” and “about 5.1%”, respectively. In data set [2] (solid form as prepared), the “stable to a temperature” value was “about 200 °C”. For the same compound, the TGA weight loss entry in data set [2] (temperature range of about 30-200° C.) was “no TGA weight loss”.
As to “valacyclovir citrate [Polymorph I of valacyclovir citrate]”, the “stable to a temperature” value in data set [2] (solid form as prepared) was “about 180 °C”. The TGA weight loss entry in data set [2] (temperature range of about 30-80° C.) is recorded as “about 2.6%”.
For the compound `CC(C)[C@H](N)C(=O)OCCOCn1cnc2c(=O)[nH]c(N)nc21` [valacyclovir, L-valine 2-[(2-amino-1,6-dihydro-6-oxo-9H-purin-9-yl)methoxy]ethyl ester], in data set [4] (after oral administration), the “absorption from the gastrointestinal tract” value is given as “rapidly absorbed”. Moreover, the bioavailability entry in data set [4] is “improved bioavailability”.
For “valacyclovir fumarate [Polymorph I of valacyclovir fumarate]”, the “stable to a temperature” value in data set [2] (solid form as prepared) was “about 200 °C”. In addition, in data set [2] (temperature range of about 30-100° C.), the TGA weight loss result is reported as “about 0.9%”.
Regarding `CC(C)[C@H](N)C(=O)OCCOCn1cnc2c(=O)[nH]c(N)nc21` [Polymorph I of valacyclovir base, L-valine 2-[(2-amino-1,6-dihydro-6-oxo-9H-purin-9-yl)methoxy]ethyl ester], the “dynamic vapour sorption (DVS)” value in data set [3] (setting [5]) is “about 0.4%”. Moreover, the “stable to a temperature” value in data set [2] (solid form as prepared) was “about 200 °C”. For the same compound, the TGA weight loss result in data set [2] (temperature range of about 200° C.) was “no TGA weight loss”.
As for “valacyclovir mesylate [Polymorph I of valacyclovir mesylate]”, the “dynamic vapour sorption (DVS)” value in data set [3] (setting [5]) was “about 3.6%”. For the same compound, in data set [2] (solid form as prepared), the “stable to a temperature” value was “about 200 °C”. Besides, in data set [2] (temperature range of about 30-165° C.), the TGA weight loss result is listed as “about 2.5%”.
For the compound `Nc1nc2c(ncn2COCCO)c(=O)[nH]1` [Acyclovir, 9-[(2-hydroxyethoxy)methyl]guanine], the bioavailability entry in data set [4] is given as “low bioavailability”.
On to “valacyclovir phosphate [Polymorph III of valacyclovir phosphate]”, for which the “dynamic vapour sorption (DVS)” value in data set [3] (setting [5]) is listed as “about 5.2%”. For the same compound, the TGA weight loss result in data set [2] (setting [6]) is on record as “about 2.1%”.
Consider “valacyclovir phosphate [Polymorph II of valacyclovir phosphate]”, for which, in data set [2] (setting [6]), the TGA weight loss result is on record as “about 6.8%”.
